Test results from patent publication US20260224571A1, “AZACYCLOALKANE COMPOUND AND PHARMACEUTICAL COMPOSITION, AND USE THEREOF” (Prime Gene Therapeutics Co., Ltd., priority 2023, published 2026).

Key:
ROCK2 = ROCK2 (Homo sapiens, UniProt O75116); test: ROCK2 kinase enzymatic activity (HTRF, STK2 substrate); type: biochemical; settings: ROCK2 kinase reacted at room temperature for 30 minutes
Text: (§1) The kinase activity data was expressed by comparing the kinase activity of the test compound and that of the blank group (containing only DMSO), and the IC50 value was obtained by curve fitting using Prism software (GraphPad7.0).

ROCK1 = ROCK1 (Homo sapiens, UniProt Q13464); test: ROCK1 kinase enzymatic activity (HTRF, STK2 substrate); type: biochemical; settings: ROCK1 kinase reacted at room temperature for 20 minutes
Text: as §1

[1] = test system: phosphorylation of myosin light chain T18/S19; test: In Cell Western for phosphorylation of myosin light chain in A7r5 cells; type: cell-based; settings: rat smooth muscle cell line A7r5, 1 hour with compound, phospho-MLC-T18/S19; read-out: cellular activity IC50
Text: The rat smooth muscle cell line A7r5 was used, and the A7r5 cell culture conditions were DMEM containing 10% FBS. Phspho-MLC-T18/S19 specific antibody and a second detection antibody were used to detect the phosphorylation level of myosin light chain by In Cell Western. Cells treated with positive compounds were used as positive controls, while the group without compounds but with compound solvents was used as negative controls. DRAQ5 stained cell nuclei were used as internal references. GraphPad Prism 7.0 software was used, and fitting was carried out by using a non-linear regression curve with varying slopes to determine the absolute IC50 value.
On the first day, A7r5 cells were resuspended in serum-free medium and seeded into 384 wells of PDL coated transparent black plates at a density of 5000 cells per well. Serum starvation culture was performed for 4 hours, and the cells were incubated with the compound in serum-free medium for 1 hour. 50 μL of 8% PFA (polyformaldehyde) was added to each well and fixed at room temperature for 1 hour. The liquid in the wells was discard and 90 μL of ice methanol was added to each well to permeabilize the cells at 4° C. for 1 hour. Then, PBST (0.1% Tween20-PBS) was added using an automatic separator to wash three times. After patting the plate for drying, 50 μL blocking solution was added to each well for sealing at room temperature for 1 hour. The phspho-MLC-T18/S19 specific antibody was diluted with the blocking solution at a ratio of 1:200. After adding 20 μL to each well, incubation was carried out overnight at 4° C. with a sealed film.
On the second day, the liquid in the wells was discarded and PBST was added using an automatic separator to wash the plate 5 times. After patting the plate for drying, the second detection antibody was diluted with blocking solution at a ratio of 1:800 and DRAQ5 at a ratio of 1:1000. After adding 20 μL to each well, incubation was carried out at room temperature for 1 hour. Then, the liquid in the wells was discarded and PBST was added using an automatic separator to wash the plate 3 times, followed by adding ddH2O to wash the plate 3 times. After patting the plate for drying, it was scanned using a LICOR Odyssey near-infrared imaging scanner.

Sequence of ROCK2 (O75116 whole entry): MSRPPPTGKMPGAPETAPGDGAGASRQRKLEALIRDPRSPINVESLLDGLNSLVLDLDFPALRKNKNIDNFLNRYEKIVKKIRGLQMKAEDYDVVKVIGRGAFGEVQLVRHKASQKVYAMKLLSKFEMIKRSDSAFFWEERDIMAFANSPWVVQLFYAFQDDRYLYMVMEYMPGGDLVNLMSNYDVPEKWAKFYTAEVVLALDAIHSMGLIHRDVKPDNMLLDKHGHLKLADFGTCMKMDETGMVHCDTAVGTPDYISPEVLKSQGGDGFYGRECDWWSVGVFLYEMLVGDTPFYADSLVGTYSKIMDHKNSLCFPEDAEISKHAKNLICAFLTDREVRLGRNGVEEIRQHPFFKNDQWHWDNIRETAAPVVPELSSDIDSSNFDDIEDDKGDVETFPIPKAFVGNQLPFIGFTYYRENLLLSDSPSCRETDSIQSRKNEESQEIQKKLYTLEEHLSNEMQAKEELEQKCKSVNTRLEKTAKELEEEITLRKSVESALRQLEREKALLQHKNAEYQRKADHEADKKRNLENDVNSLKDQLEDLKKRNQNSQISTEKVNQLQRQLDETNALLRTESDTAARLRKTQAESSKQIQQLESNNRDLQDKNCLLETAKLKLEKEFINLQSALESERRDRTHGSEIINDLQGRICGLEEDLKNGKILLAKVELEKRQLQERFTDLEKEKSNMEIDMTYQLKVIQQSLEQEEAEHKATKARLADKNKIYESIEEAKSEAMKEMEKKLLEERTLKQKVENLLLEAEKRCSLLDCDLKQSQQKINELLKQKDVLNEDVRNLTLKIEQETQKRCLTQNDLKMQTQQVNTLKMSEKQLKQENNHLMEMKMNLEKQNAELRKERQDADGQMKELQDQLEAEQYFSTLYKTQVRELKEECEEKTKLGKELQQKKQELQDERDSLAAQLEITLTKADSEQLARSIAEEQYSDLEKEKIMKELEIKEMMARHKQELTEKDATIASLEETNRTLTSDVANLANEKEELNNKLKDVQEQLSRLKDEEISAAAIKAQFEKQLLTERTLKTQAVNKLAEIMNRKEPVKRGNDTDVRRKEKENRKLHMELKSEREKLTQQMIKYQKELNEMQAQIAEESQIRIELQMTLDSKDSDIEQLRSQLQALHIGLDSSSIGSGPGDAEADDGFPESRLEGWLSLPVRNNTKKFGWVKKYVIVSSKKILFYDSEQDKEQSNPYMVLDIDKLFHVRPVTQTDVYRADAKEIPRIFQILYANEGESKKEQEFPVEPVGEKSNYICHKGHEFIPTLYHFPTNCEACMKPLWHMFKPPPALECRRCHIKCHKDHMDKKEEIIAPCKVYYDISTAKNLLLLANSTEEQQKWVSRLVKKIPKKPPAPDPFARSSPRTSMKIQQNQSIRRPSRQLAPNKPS
Sequence of ROCK1 (Q13464 whole entry): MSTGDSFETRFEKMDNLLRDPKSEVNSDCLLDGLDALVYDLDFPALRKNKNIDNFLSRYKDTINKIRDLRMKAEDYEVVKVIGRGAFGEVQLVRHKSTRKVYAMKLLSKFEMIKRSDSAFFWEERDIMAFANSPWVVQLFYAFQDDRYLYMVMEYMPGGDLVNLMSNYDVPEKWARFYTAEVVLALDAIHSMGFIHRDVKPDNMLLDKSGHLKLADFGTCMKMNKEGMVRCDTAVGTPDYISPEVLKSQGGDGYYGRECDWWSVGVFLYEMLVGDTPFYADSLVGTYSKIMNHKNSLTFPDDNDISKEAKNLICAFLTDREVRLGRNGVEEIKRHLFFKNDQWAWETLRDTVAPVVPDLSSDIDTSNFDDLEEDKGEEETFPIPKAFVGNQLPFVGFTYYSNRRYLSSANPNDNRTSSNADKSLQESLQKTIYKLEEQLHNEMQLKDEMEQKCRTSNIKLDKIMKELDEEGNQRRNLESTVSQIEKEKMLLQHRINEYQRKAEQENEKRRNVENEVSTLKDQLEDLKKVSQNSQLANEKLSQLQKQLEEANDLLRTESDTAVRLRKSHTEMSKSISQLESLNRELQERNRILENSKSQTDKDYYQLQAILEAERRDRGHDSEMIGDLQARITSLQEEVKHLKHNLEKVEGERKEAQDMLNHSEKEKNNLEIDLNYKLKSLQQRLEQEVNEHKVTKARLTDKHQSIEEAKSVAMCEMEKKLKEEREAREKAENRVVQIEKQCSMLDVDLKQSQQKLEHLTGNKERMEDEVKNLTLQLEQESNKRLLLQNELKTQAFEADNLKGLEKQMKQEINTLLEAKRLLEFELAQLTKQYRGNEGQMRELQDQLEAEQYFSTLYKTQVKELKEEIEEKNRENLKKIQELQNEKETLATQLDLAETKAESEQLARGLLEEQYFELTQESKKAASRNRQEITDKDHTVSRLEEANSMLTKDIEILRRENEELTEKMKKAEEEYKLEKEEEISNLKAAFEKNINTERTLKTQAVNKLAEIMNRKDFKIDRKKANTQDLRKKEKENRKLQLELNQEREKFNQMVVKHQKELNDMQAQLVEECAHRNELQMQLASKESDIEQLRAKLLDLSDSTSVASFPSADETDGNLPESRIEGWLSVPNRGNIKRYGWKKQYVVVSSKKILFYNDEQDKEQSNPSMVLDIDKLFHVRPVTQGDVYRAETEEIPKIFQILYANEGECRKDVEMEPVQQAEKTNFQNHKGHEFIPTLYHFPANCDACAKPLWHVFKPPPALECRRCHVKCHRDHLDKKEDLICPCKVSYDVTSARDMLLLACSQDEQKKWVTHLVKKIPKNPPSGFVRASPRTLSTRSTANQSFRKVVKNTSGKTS

Row | IC50 (ROCK2) [nM] | IC50 (ROCK1) [nM] | IC50 [1] [nM] | SMILES
1 | < 5 | < 5 | 11 | N#CCC1(n2cc(-c3ncnc4[nH]ccc34)c(N)n2)CN(S(=O)(=O)C(F)(F)F)C1 [Example 2, 2-(3-(3-amino-4-(7H-pyrrolo[2,3-d]pyrimidin-4-yl)-1H-pyrazol-1-yl)-1-((trifluoromethyl)sulfonyl)azetidine-3-yl)acetonitrile]
2 | > 100 | > 100 | > 10000 | CNC(=O)c1nn(C2(CC#N)CN(S(=O)(=O)CC(F)(F)F)C2)cc1-c1ncnc2[nH]ccc12 [Example 62, 1-(3-(cyanomethyl)-1-((2,2,2-trifluoroethyl)sulfonyl)azetidine-3-yl)-N-methyl-4-(7H-pyrrolo[2,3-d]pyrimidin-4-yl)-1H-pyrazol-3-formamide]
3 | < 5 | < 5 | 4110 | N#CCNC(=O)N1CC(CC#N)(n2cc(-c3ncnc4[nH]ccc34)c(N)n2)C1 [Example 18, 3-(3-amino-4-(7H-pyrrolo[2,3-d]pyrimidin-4-yl)-1H-pyrazol-1-yl)-N,3-bis(cyanomethyl)azetidine-1-formamide]
4 | < 10 | < 10 | > 10000 | COc1nsc(NC(=O)N2CC(CC#N)(n3cc(-c4ncnc5[nH]ccc45)c(N)n3)C2)n1 [Example 19, 3-(3-amino-4-(7H-pyrrolo[2,3-d]pyrimidin-4-yl)-1H-pyrazol-1-yl)-3-(cyanomethyl)-N-(3-methoxy-1,2,4-thiadiazol-5-yl)azetidine-1-formamide]
